Laboratory results as given in ChEMBL document CHEMBL1201862, “PubChem BioAssay data set” (2004).
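Protocol summary: plate cells (96-well), add compound at 5 concentrations, incubate 48 h, interpolate endpoints linearly. GI50 = concentration required for 50% inhibition of growth.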 Calls of active or inactive are those of the source. No stated cut-off is given here; in the data, active = GI50 up to about 1.1 µM and inactive = higher.

Assays:
Experiment in all cases: NCI tumour cell line growth inhibition, 48 h
CAKI-1 = system: CAKI-1
CCRF-CEM = system: CCRF-CEM
COLO 205 = system: COLO 205
DU-145 = system: DU-145
HCT-15 = system: HCT-15
HL-60 = system: HL-60
IGROV-1 = system: IGROV-1
K562 = system: K562
KM12 = system: KM12
M14 = system: M14
MCF7 = system: MCF7
MDA-MB-435 = system: MDA-MB-435
NCI/ADR-RES = system: NCI/ADR-RES
OVCAR-5 = system: OVCAR-5
RXF 393 = system: RXF 393
SF-268 = system: SF-268
SK-MEL-2 = system: SK-MEL-2
SK-MEL-5 = system: SK-MEL-5
SNB-19 = system: SNB-19
TK-10 = system: TK-10

Compound | GI50 (CAKI-1) | GI50 (CCRF-CEM) | GI50 (COLO 205) | GI50 (DU-145) | GI50 (HCT-15) [µM] | GI50 (HL-60) | GI50 (IGROV-1) | GI50 (K562) | GI50 (KM12) | GI50 (M14) | GI50 (MCF7) | GI50 (MDA-MB-435) | GI50 (NCI/ADR-RES) | GI50 (OVCAR-5) | GI50 (RXF 393) | GI50 (SF-268) | GI50 (SK-MEL-2) | GI50 (SK-MEL-5) | GI50 (SNB-19) | GI50 (TK-10)
CC1=C(C(=O)Nc2ccc(Cl)c(C(=O)OC(C)C)c2)SCCO1 | > 100 µM (inactive) | 48.6 µM (inactive) | 51.9 µM (inactive) | > 100 µM (inactive) | 69 | 13.8 µM (inactive) | 72.4 µM (inactive) | 45.6 µM (inactive) | 80.9 µM (inactive) | > 100 µM (inactive) | 55.3 µM (inactive) | > 100 µM (inactive) | 66.2 µM (inactive) | 47.9 µM (inactive) | 48.1 µM (inactive) | 30.6 µM (inactive) | 68.4 µM (inactive) | 50.1 µM (inactive) | 70.5 µM (inactive) | > 100 µM (inactive)
COCCOCOC(C)(C)[C@H](CCO)O[Si](c1ccccc1)(c1ccccc1)C(C)(C)C |  |  | 15.9 µM (inactive) |  | 4.68 | 2.39 µM (inactive) | 9.14 µM (inactive) |  | 11.5 µM (inactive) | 9.89 µM (inactive) |  |  |  | 14.1 µM (inactive) | 5.3 µM (inactive) | 7.13 µM (inactive) | > 10 µM (inactive) | 13.4 µM (inactive) | 13.2 µM (inactive) | 10.9 µM (inactive)
O=C(NN1C(=O)CS(=O)(=O)C1c1ccc(C(F)(F)F)cc1)c1ccncc1 (stereo unspecified) | > 100 µM (inactive) | > 100 µM (inactive) | > 100 µM (inactive) |  | > 100 | > 100 µM (inactive) |  |  | > 100 µM (inactive) | > 100 µM (inactive) |  |  |  | > 100 µM (inactive) | > 100 µM (inactive) | > 100 µM (inactive) | > 100 µM (inactive) | > 100 µM (inactive) | > 100 µM (inactive) | > 100 µM (inactive)
Cc1oc2nc(N(C)C)n3c(C)nnc3c2c1C | > 100 µM (inactive) | > 100 µM (inactive) | > 100 µM (inactive) | > 100 µM (inactive) | > 100 |  | > 100 µM (inactive) | > 100 µM (inactive) | > 100 µM (inactive) | > 100 µM (inactive) | > 100 µM (inactive) | > 100 µM (inactive) | > 100 µM (inactive) | > 100 µM (inactive) | > 100 µM (inactive) | > 100 µM (inactive) |  | > 100 µM (inactive) | > 100 µM (inactive) | > 100 µM (inactive)
CCOC(=O)C1=CC(C)(C(=O)OCC)Nc2c(nc(OC)n(C)c2=O)N1 (stereo unspecified) | > 10 µM (inactive) | > 10 µM (inactive) | > 10 µM (inactive) | > 10 µM (inactive) | > 10 |  | > 10 µM (inactive) | > 10 µM (inactive) | > 10 µM (inactive) | > 10 µM (inactive) | > 10 µM (inactive) | > 10 µM (inactive) | > 10 µM (inactive) | > 10 µM (inactive) | > 10 µM (inactive) | > 10 µM (inactive) | > 10 µM (inactive) | > 10 µM (inactive) | > 10 µM (inactive) | > 10 µM (inactive)
CCOC(=O)c1c(SC(=O)c2ccc(Cl)cc2)n(-c2ccccc2)c(=S)n(-c2ccccc2)c1=O | > 100 µM (inactive) | > 100 µM (inactive) | > 100 µM (inactive) | > 100 µM (inactive) | > 100 | > 100 µM (inactive) | > 100 µM (inactive) | > 100 µM (inactive) | > 100 µM (inactive) | > 100 µM (inactive) | > 100 µM (inactive) | > 100 µM (inactive) | > 100 µM (inactive) | > 100 µM (inactive) | > 100 µM (inactive) | > 100 µM (inactive) |  |  | > 100 µM (inactive) | > 100 µM (inactive)
CN(C)C(CN)CC1=C(CC(CN)N(C)C)CCC1 (stereo unspecified) | > 100 µM (inactive) | > 100 µM (inactive) | > 100 µM (inactive) |  | > 100 | > 100 µM (inactive) | > 100 µM (inactive) | > 100 µM (inactive) | > 100 µM (inactive) |  | > 100 µM (inactive) |  | > 100 µM (inactive) | > 100 µM (inactive) | > 100 µM (inactive) | > 100 µM (inactive) | > 100 µM (inactive) | > 100 µM (inactive) | > 100 µM (inactive) | 
O=C(CC(=O)C1CCOC1=O)C(=O)Nc1ccc(Cl)cc1Cl (stereo unspecified) | > 100 µM (inactive) | > 100 µM (inactive) | > 100 µM (inactive) |  | > 100 | > 100 µM (inactive) | > 100 µM (inactive) | > 100 µM (inactive) | > 100 µM (inactive) | > 100 µM (inactive) |  |  |  | > 100 µM (inactive) | > 100 µM (inactive) | > 100 µM (inactive) | > 100 µM (inactive) | > 100 µM (inactive) | > 100 µM (inactive) | > 100 µM (inactive)
CN1CCN(Cn2nc(COc3ccc(Cl)cc3)n(/N=C/c3ccc(-c4ccc(Cl)cc4Cl)o3)c2=S)CC1 | 14.2 µM (inactive) | 0.247 µM (active) |  | 11.9 µM (inactive) | 18.6 |  | 10.6 µM (inactive) | 15.2 µM (inactive) | 3.18 µM (inactive) |  | 8.32 µM (inactive) | 2.55 µM (inactive) | 20.5 µM (inactive) | 6.46 µM (inactive) | 2.33 µM (inactive) | 3.95 µM (inactive) | 18.3 µM (inactive) | 14.8 µM (inactive) |  | 14.5 µM (inactive)
CN1C(=O)NC(=O)/C(=C\Nc2ncccn2)C1=O | > 100 µM (inactive) |  | > 100 µM (inactive) | > 100 µM (inactive) | > 100 | > 100 µM (inactive) | > 100 µM (inactive) |  | > 100 µM (inactive) | > 100 µM (inactive) | > 100 µM (inactive) | > 100 µM (inactive) | > 100 µM (inactive) | > 100 µM (inactive) |  | > 100 µM (inactive) | > 100 µM (inactive) | > 100 µM (inactive) | > 100 µM (inactive) | > 100 µM (inactive)
O=C(OC(=O)n1ccc2ccccc21)n1ccc2ccccc21 | > 96.4 µM (inactive) | > 100 µM (inactive) | > 100 µM (inactive) |  | > 100 | > 100 µM (inactive) | > 100 µM (inactive) | > 100 µM (inactive) | > 100 µM (inactive) |  | > 100 µM (inactive) |  | > 100 µM (inactive) | > 100 µM (inactive) | > 100 µM (inactive) | > 100 µM (inactive) | > 100 µM (inactive) | > 100 µM (inactive) | > 100 µM (inactive) | 
COc1cc2c(cc1OC)C(Cc1c3ccccc3cc3ccccc13)N(C)CC2 (stereo unspecified) | 25.1 µM (inactive) | 18.8 µM (inactive) | 11.2 µM (inactive) |  | 30.2 | 10.4 µM (inactive) | 20.7 µM (inactive) | 12.5 µM (inactive) | 16.3 µM (inactive) |  | 13.7 µM (inactive) |  | 24.7 µM (inactive) | 13.5 µM (inactive) | 10.5 µM (inactive) | 29 µM (inactive) | 17.6 µM (inactive) | 17.3 µM (inactive) | 22.2 µM (inactive) | 
CC1(C)CCc2ccc(OCCC(=O)O)cc2O1 | > 100 µM (inactive) | > 100 µM (inactive) | > 100 µM (inactive) |  | > 100 | > 100 µM (inactive) | > 100 µM (inactive) | > 100 µM (inactive) | > 100 µM (inactive) | > 100 µM (inactive) |  |  |  | > 100 µM (inactive) |  | > 100 µM (inactive) | > 100 µM (inactive) | > 100 µM (inactive) |  | 
CCOC(=O)/C=C(/C)Nc1nc2c(c(C(=O)OC)c1C#N)CCCC2 | > 100 µM (inactive) | > 100 µM (inactive) | > 100 µM (inactive) | > 100 µM (inactive) | > 100 | 69.3 µM (inactive) | > 100 µM (inactive) | > 100 µM (inactive) | > 100 µM (inactive) | > 100 µM (inactive) | > 100 µM (inactive) | > 100 µM (inactive) | > 100 µM (inactive) | > 100 µM (inactive) | > 100 µM (inactive) | > 100 µM (inactive) | > 100 µM (inactive) | > 100 µM (inactive) | > 100 µM (inactive) | > 100 µM (inactive)
CCOc1cc(C(=O)O)c2c(ccc3ccc(OC)c(OC)c32)c1OC | > 100 µM (inactive) | > 100 µM (inactive) | > 100 µM (inactive) | > 100 µM (inactive) | > 100 | > 100 µM (inactive) | > 100 µM (inactive) | > 100 µM (inactive) | > 100 µM (inactive) | > 100 µM (inactive) | > 100 µM (inactive) | > 100 µM (inactive) | > 100 µM (inactive) | > 100 µM (inactive) | > 100 µM (inactive) | > 100 µM (inactive) | > 100 µM (inactive) | > 100 µM (inactive) | > 100 µM (inactive) | > 100 µM (inactive)
CCCCCCCCCCCCCCCCOCC(CC(F)(F)P(=O)(OCC)OCC)OC(C)=O (stereo unspecified) | 16.6 µM (inactive) |  | 18.2 µM (inactive) | 15.4 µM (inactive) | 5.94 |  | 8.49 µM (inactive) | 14.1 µM (inactive) | 11.6 µM (inactive) | 17.9 µM (inactive) | 15.8 µM (inactive) | 18.6 µM (inactive) | 16.3 µM (inactive) | 18.3 µM (inactive) | 23.8 µM (inactive) | 12.6 µM (inactive) | 19.6 µM (inactive) | 21.1 µM (inactive) | 3.21 µM (inactive) | 14 µM (inactive)
CCOC(=O)/C(O)=C1\C(=O)N(C)C(=O)C1c1ccc(OC)c(OC)c1 (stereo unspecified) | > 100 µM (inactive) | > 100 µM (inactive) | > 100 µM (inactive) |  | > 100 | > 100 µM (inactive) | > 100 µM (inactive) | > 100 µM (inactive) | > 100 µM (inactive) |  | > 100 µM (inactive) |  | > 100 µM (inactive) | > 100 µM (inactive) | > 100 µM (inactive) | > 100 µM (inactive) | > 100 µM (inactive) | > 100 µM (inactive) | > 100 µM (inactive) | 
